# According to patent US20240207282A1, “METHOD OF INCREASING CHAPERONE MEDIATED AUTOPHAGY BY STABILIZING THE INTERACTION OF RETINOIC ACID RECEPTOR-ALPHA AND AN INHIBITOR” (ALBERT EINSTEIN COLLEGE OF MEDICINE, priority 2021, published 2024):
# Assays:
# cellular RARα and NCoR1 = target: T1, cellular RARα and NCoR1 (Mus musculus, UniProt P11416); experiment: Streptavidin pulldown of RARα and NCoR1 with biotinylated CA compound; format: binding; settings: NIH3T3, 10 μM, 24 h
# T1 construct: endogenous in cells; host or cells: NIH3T3
# [1] = Chronic toxicity in mice (blood count, histopathology); format: in vivo; settings: chronic (5 months) daily oral administration
# Method: Liver, lung and kidneys from CA-treated animals were dissected and fixed in 1% PFA overnight and paraffin embedded. Tissues were sectioned, stained with hematoxylin and eosin (H&E) and analyzed by an expert pathologist, blind to the treatment groups, to score for possible presence of toxicity in these organs. Scoring 1-6 was used assigning 6 to those observations clinically relevant. Individual scoring per parameter and per organ and average scoring per organ were performed. Blood cell count in the groups of mice administered vehicle or CA was analyzed in tail blood drawn monthly and at the moment of tissue dissection using an Oxford Science Forcyte Blood Analysis Unit.
# [2] = Pharmacokinetics in mice (plasma and brain); format: in vivo, mouse; settings: male, ICR (CD-1), mouse, po, administered orally
# Method: ICR (CD-1) male mice were fasted at least three hours and water was available ad libitum before the study. Animals were housed in a controlled environment, target conditions: temperature 18 to 29° C., relative humidity 30 to 70%. Temperature and relative humidity was monitored daily. An electronic time controlled lighting system was used to provide a 12 hr light/12 hr dark cycle. 3 mice for each indicated time point were administered 30 mg/Kg CA39 or CA77 by oral gavage or 1 mg/Kg CA39 or CA77 by intravenous injection using 30% PEG-400, 65% D5W (5% dextrose in water), 5% Tween-80 vehicle. Mice were sacrificed, and brain samples were harvested at 0 hr, 0.25 hr, 0.5 hr, 1 hr, 2 hr, 4 hr, 8 hr, 24 hr, and analyzed for CA39 or CA77 levels using LC-MS/MS. Pharmacokinetics parameters were calculated using Phoenix WinNonlin 6.3. Experiments performed at SIMM-SERVIER joint Biopharmacy Laboratory.
# CMA network = experiment: Comparative transcriptomic analysis / qPCR of CMA network; format: cell-based, mouse; settings: for changes in the transcriptome: treated cells
# Method: mRNA-qPCR: RNA was extracted from individual retinas. Total RNA from retinas was extracted using TRIzol Reagent (Invitrogen), and reverse transcription performed using the High-Capacity cDNA Reverse Transcription Kit (Applied Biosystems) according to the manufacturer's instructions. Quantitative real-time PCR was performed in a Light Cycler 480 Instrument (Roche) with Taqman Universal PCR Master Mix using Taqman assays (Life Tech-nologies). The following probes were used: Mm01184405_m1 (rhodopsin), F-5′-CTTAGCTTCTGGGATGC CCC-3′, R-5′-[…]-3′ (lamp2a) F-5′-AA GGACTCCTA TAGTGGG TGACGA-3′, R-5′-[…]-3′ (mouse β-actin).
# Microarray: Total RNA of the treated cells was extracted using TRIzol (Invitrogen) and purified with RNeasy chromatography (Qiagen). Cy3-labeled RNA (0.6 μg) from each condition were hybridized to Agilent Mouse 8×60K. Data were processed using the oligo package and normalized using Robust Multiarray Average (RMA) method. Gene set was filtered to remove genes without Entrez or GO annotation (21912 genes out of 55682) and genes with an […]. The full microarray Gomez-Sintes et al. raw data will be deposited in GEO upon acceptance of the manuscript. Pathway analysis was performed using the STRING database ([…]).
# CMA index was calculated using data set from Ly (J. Proteome Research (2016) 15: 1350-1359), Gao (2020), and Lane (2020). Briefly, each element of the CMA network was attributed a weight. As LAMP-2A is the rate limiting component of CMA, it was given a weight of 2. Every other element received a weight of 1. Then, every element was attributed direction score that is +1 or −1 based on the known effect of a given element on CMA activity. The score was then calculated as the weighted/directed average of expression counts of every element of the CMA network.
# human cells = experiment: CMA activity, KFERQ-PS-Dendra reporter in human cells; format: cell-based
# Method: Cells: NIH3T3 mouse fibroblasts and the N2a neuroblastoma cell line were obtained from the American Type Culture Collection and were validated by genomic PCR. Primary human fibroblasts (GM01651) were from Coriell Repository. All the cells lines were tested for mycoplasma contamination using DNA staining protocol with Hoechst 33258 dye. Knock-down of NCoR1 was done using lentiviral mediated shRNA (SHCLNG-NM_011308) from the Sigma Mission library following standard procedures. Efficiency of knock-down was tested by immunoblot. Cell viability was measured using the CellTiter-Blue kit (Promega) 24 h after the addition of the different stressors according to manufacturer's instructions.
# CMA activity: Cells were transduced with lentivirus carrying the KFERQ-PS-Dendra reporter as before. Cells were photoactivated by exposure to a 3.5 mA (current constant) light emitting diode (LED: Norlux, 405 nm) for 3 min and then plated in glass-bottom 96 well plates. At the desired times, cells were fixed with 4% PFA and imaged using high-content microscopy (Operetta system, Perkin Elmer). Images were quantified using the manufacturer's software in a minimum of 1,200 cells in 9 independent fields per well. […] To avoid con-funding effects for drug-induced changes in cell volume or adherence to the plate that could bring a fraction of the cells per field outside of focus, we set a threshold to count only cells that have at least 1/10 of the average number of […] detected in the untreated wells for each cell type (3-4 puncta/cell in the case of NIH3T3 and N2a cells and 5 puncta/cell in primary human fibroblasts). […] Slices were mounted in DAPI-Fluoromount-G to highlight the cell nucleus and allow quantification of puncta per cell. Images were acquired in x-y-z planes with an Axiovert 200 fluorescence microscope (Carl Zeiss Ltd) with a ×63 objective and 1.4 numerical aperture, mounted with an ApoTome.2 slider or with a Confocal microscope (TCS SP5; Leica) using an HCX Plan Apo CS×63.0 1.40 NA oil objective and the Leica Application Suite X (LAS X).
# NIH3T3 = experiment: Intracellular proteolysis of long half-life proteins (3H-leucine); format: cell-based, mouse; settings: 10 μM; duration of increase after addition
# Method: Proteolysis was calculated from aliquots of the medium taken at different times and precipitated in trichloroacetic acid, as the amount of acid-precipitable radioactivity transformed to acid-soluble radioactivity at each time.
# T1 sequence (P11416 whole entry): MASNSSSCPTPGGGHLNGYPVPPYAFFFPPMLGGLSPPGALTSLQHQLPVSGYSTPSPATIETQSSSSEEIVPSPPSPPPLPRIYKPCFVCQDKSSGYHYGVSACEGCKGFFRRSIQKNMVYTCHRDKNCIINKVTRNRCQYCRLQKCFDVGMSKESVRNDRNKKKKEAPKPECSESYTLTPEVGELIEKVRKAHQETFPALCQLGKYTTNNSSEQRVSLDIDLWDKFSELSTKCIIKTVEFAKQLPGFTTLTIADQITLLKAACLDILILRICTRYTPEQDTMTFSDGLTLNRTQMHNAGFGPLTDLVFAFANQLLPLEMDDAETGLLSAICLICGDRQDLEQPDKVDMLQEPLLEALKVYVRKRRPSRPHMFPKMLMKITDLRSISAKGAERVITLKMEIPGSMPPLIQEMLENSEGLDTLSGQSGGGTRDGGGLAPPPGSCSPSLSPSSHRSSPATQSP
# T1 sequence (Q60974 whole entry partner): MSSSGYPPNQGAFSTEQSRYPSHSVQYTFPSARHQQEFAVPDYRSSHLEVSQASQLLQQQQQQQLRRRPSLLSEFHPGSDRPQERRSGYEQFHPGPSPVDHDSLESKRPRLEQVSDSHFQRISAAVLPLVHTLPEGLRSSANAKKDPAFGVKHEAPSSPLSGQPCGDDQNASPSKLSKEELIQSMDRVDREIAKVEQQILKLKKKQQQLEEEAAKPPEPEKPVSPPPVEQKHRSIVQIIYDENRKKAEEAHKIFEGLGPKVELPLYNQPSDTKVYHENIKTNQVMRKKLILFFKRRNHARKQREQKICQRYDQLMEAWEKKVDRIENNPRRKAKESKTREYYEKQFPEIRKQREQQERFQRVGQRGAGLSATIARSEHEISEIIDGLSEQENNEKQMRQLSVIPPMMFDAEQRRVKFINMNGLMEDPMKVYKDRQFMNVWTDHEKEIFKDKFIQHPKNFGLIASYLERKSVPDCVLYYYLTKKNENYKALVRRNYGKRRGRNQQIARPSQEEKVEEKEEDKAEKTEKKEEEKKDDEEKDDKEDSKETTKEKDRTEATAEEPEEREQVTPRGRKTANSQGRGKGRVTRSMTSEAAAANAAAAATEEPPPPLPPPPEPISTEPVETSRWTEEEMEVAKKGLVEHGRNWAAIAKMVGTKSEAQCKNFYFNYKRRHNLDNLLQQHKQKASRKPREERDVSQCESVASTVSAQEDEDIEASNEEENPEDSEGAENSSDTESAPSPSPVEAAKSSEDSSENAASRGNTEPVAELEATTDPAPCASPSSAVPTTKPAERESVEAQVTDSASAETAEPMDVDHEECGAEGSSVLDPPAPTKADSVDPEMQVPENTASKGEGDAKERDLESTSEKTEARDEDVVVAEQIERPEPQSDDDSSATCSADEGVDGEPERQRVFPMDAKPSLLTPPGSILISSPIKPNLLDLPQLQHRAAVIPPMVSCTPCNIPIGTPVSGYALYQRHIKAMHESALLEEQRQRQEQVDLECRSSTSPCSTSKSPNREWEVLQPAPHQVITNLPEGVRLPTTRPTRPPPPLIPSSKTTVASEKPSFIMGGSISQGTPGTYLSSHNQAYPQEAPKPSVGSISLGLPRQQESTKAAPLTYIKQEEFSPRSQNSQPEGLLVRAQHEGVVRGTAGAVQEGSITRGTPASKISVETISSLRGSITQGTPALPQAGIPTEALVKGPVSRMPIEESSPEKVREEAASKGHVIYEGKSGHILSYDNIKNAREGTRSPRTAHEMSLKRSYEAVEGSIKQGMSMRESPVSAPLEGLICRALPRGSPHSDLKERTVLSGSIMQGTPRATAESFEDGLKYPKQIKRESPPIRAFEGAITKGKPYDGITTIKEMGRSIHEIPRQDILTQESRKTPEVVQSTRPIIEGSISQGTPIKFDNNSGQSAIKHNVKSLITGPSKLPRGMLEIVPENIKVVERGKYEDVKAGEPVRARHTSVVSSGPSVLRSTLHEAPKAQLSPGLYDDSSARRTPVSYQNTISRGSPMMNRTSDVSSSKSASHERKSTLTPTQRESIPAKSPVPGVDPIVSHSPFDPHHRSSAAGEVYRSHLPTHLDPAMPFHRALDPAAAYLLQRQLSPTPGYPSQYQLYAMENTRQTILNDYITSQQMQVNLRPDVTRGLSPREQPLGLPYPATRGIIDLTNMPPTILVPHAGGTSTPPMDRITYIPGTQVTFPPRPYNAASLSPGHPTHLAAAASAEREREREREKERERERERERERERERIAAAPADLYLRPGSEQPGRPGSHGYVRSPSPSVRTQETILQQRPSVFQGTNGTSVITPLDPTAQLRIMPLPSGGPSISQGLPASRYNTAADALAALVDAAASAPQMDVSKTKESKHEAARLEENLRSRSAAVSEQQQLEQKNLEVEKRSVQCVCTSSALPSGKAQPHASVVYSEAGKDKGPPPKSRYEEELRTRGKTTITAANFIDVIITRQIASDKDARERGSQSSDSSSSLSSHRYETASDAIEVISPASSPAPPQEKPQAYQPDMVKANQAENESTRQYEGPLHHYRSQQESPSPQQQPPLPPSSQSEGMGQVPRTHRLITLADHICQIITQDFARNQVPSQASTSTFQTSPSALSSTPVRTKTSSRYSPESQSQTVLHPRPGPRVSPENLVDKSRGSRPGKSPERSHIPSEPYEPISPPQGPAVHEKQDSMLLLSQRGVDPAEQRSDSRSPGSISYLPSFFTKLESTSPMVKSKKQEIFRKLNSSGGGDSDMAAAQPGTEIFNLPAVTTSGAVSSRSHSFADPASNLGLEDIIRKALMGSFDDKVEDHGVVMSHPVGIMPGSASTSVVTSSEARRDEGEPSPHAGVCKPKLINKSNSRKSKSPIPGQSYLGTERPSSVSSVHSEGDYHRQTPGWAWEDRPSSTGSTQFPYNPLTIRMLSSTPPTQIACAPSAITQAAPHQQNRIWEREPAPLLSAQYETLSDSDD
compound,measurement,setting,value
O=C(CCCC[C@H]1SCC2NC(=O)NC21)NCCCOCCOCCOCCCNC(=O)c1ccc(C2=Nc3ccc(Cl)cc3OC2)cc1 (stereo partly drawn) [biotinylated CA compound],co-immunoprecipitation of cellular RARα and NCoR1,cellular RARα and NCoR1,could be co-immunoprecipitated
CC(=O)Nc1ccc(-c2cnc3cc(Cl)ccc3n2)cc1 [CA77.1],peripheral blood or major organ toxicity,[1],"lack of peripheral blood or major organ (liver, lung, kidney) toxicity"
same,Kp,"[2]; brain/plasma, read-out: AUC brain/plasma",5.73
same,half-life,"[2]; plasma, read-out: Plasma half-life (converted)",3 h
CC1(C)CC=C(c2cnc3ccccc3c2)c2cc(C(=O)Nc3ccc(C(=O)O)cc3)ccc21 [BMS614],changes in the transcriptome,CMA network,marked changes in the transcriptome
"Cc1ccc(C2=Nc3ccc(Cl)cc3OC2)cc1 [AR7, reference compound]",CMA activation,human cells,very discrete
same,intracellular rates of degradation of long-lived proteins,NIH3T3,sustained only for the first 12 h after addition of the compound
same,number of CMA network components with changed expression,CMA network; of the 17 currently accepted components,8
same,changes in the transcriptome,CMA network,only induced changes in the expression of a discrete fraction of genes
